Measured values as given in publication PMC12408683 (Archives of Toxicology, 2025).

Test system: HepG2-CYP1A2 cells
Assay: Alkaline comet assay (DNA strand breaks) in HepG2-CYP1A2 cells
Conditions: 24 h
Procedure: As a positive control, tBuOOH (20 min, 200 µM) was used. Subsequently, the alkaline comet assay was performed to quantify DNA strand breaks as previously described (Haas et al. [2023b]). Per sample, at least 50 comets were counted with Comet IV software (Instem, Staffordshire, UK) using a Zeiss Axio Observer 7 microscope equipped with an Axiocam 305 mono and ZEN 3.2 software (Carl Zeiss, Jena, Germany).

Compound: C=CCc1ccc(OC)cc1 [ES, estragole]
- DNA strand breaks (alkaline comet assay) (2 mM ES, vs solvent control): small but not statistically significant increase
- DNA strand breaks (alkaline comet assay) (up to 2 mM ES): did not elicit an increase of DNA strand break levels
